# Experimental data as given in patent publication US8106035B2, “25-SO2-substituted analogs of 1μ,25-dihydroxyvitamin D3” (Cytochroma Inc., priority 2002, dated 2012).
# Key:
# [1] = test system: SCC-25 cells; assay: [3H]-thymidine proliferation assay with SCC-25 cells; format: cell-based; conditions: together with calcitriol; 1, 10, 50 nM compound; three days
# Procedure: SCC-25 cells were treated with specified concentrations of calcitriol and compound Va for three days. Cells were then incubated with [^3H]-thymidine for 6 h at 37° C. in a humidified atmosphere containing 5% CO2. Plates were harvested and radioactivity measured. Dose response curves in the absence of Va, 1 nM Va, 10 nM Va and 50 nM Va are shown.
# [^3H]-thymidine Proliferation Assay with SCC-25 Cells
# • 1. Preparation of cell suspension • When SCC-25 cells are 70-80% confluent, aspirate media. Wash the cells with 1×PBS. Trypsinize with trypsin-EDTA from the plate, collect cells from the tissue culture flask, centrifuged (500×g, 5 min) and resuspended in media. • 2. Cell plating. • Count the cells and adjust the cell density to 10,000/ml. Add 200 μl per well in a 96 well plate. Incubate plate for 24 h at 37° C. in a humidified atmosphere plus 5% CO2. Aspirate used media and replace with 150 μl per well with media. • 3. Compound addition. • Add 25 μl of 1α,25(OH)2D3 (final concentration 10^−6 M, 10^−7 M, 10^−8 M, 10^−9 M, 10^−10 M, 10^−11 M) into each designated well. Add 25 μL of Substrate (final concentration 10^−7 M, 5×10^−8 M, 10^−8 M or 10^−9 M) into each designated well. Incubate plates for 3 days at 37° C. in a humidified atmosphere plus 5% CO2. • 4. ^3H-Thymidine incorporation. • Add ^3H-thymidine at 0.02 μCi per well and incubate at 37° C. in a humidified atmosphere plus 5% CO2 for 6 h. • 5. Plate Harvesting. • Aspirate all media and wash cells with 1×PBS. Trypsinize cells for 30 min at 37° C. in a humidified atmosphere plus 5% CO2. Harvest cells onto a 96 well filter plate (Millipore) using a Tomtec Cell Harvestor, according to manufacturers instructions. • 6. Scintillation Counting. • Add 25 μl of scintillation fluid per well. Count the plate using a scintillation counter. Results: See FIGS. 10-13.
# [2] = test system: MCF-7 cells; assay: [3H]-thymidine proliferation assay with MCF-7 cells; format: cell-based; conditions: together with calcitriol; 1, 10, 50 nM compound; three days
# Procedure: MCF-7 cells were treated with specified concentrations of calcitriol and compound Va for three days. Cells were then incubated with [^3H]-thymidine for 6 h at 37° C. in a humidified atmosphere containing 5% CO2. Plates were harvested and radioactivity measured. Dose response curves in the absence of Va, 1 nM Va, 10 nM Va and 50 nM Va are shown.
# [^3H]-thymidine Proliferation Assay with MCF-7 Cells
# • 1. Preparation of cell suspension • When MCF-7 cells are 70-80% confluent, aspirate growth media. Wash the cells with 1×PBS. Trypsinize with trypsin-EDTA from the plate, collect cells from the tissue culture flask, centrifuged (500×g, 5 min) and resuspended in growth media. • 2. Cell plating. • Count the cells and adjust the cell density to 25, 000/ml. Add 200 μl per well in a 96 well plate. Incubate plate for 24 h at 37° C. in a humidified atmosphere plus 5% CO2. Aspirate used media and replace with […] per well with proliferation media. • 3. Substrate addition. • Add 25 μl of 1α,25(OH)2D3 (final concentration 10^−6 M, 10^−7 M, 10^−8 M, 10^−9 M, 10^−10 M, 10^−11 M) into each designated well. Add 25 μl of Substrate (final concentration 10^−7 M, 5×10^−8 M, 10^−8 M or 10^−9 M) into each designated well. Incubate plates for 3 days at 37° C. in a humidified atmosphere plus 5% CO2. • 4. ^3H-Thymidine incorporation. • Add ^3H-thymidine at 0.02 μCi per well and incubate at 37° C. in a humidified atmosphere plus 5% CO2 for 6 h. • 5. Plate Harvesting. • Aspirate all media and wash cells with 1×PBS. Trypsinize cells for 30 min at 37° C. in a humidified atmosphere plus 5% CO2. Harvest cells onto a 96 well filter plate (Millipore) using a Tomtec Cell Harvestor, according to manufacturers instructions. • 6. Scintillation Counting. • Add 25 μt of scintillation fluid per well. Count the plate using a scintillation counter. Results: See FIGS. 5-9.
# [3] = test system: normal human epidermal keratinocytes (NHEK); assay: Human epidermal keratinocyte proliferation (HEK) assay, [3H]-thymidine; format: cell-based; conditions: together with calcitriol; 1, 10, 50 nM compound; three days
# Procedure: NHEK were treated with specified concentrations of calcitriol and compound Va for three days. Cells were then incubated with [^3H]-thymidine for 18 h at 37° C. in a humidified atmosphere containing 5% CO2. Plates were harvested and radioactivity measured. Dose response curves in the absence of Va, 1 nM Va, 10 nM Va and 50 nM Va are shown.
# Human Epidermal Keratinocyte Proliferation (HEK) Assay
# • 1. HEK cell media • Supplement KGM media with additional reagents provided in the bullet kit as per supplier's instructions. • Add calcium chloride to final concentration of 0.3 mM. • 2. Calcitriol dilutions
# (iii) Procedure: • 2. Cell culture • Thaw one vial of HEK cells containing at least 500 K, and divide into 5 25 cm^2 flasks with 5 ml HEK cell media. 24 h later, remove media and replenish with 5 ml fresh media. Change media again 48 h later. • 3. Preparation of cell suspension • On the day of the assay, wash the monolayer of HEK cells once with 1×PBS buffer (provided in reagent pack) and then trypsinize for 5 min at 37° C. Add trypsin neutralizing solution (provided in reagent pack). Collect cells into tube, centrifuge cells (500×g, 5 min) and resuspend in HEK cell media. Count cells and adjust density to 150,000 cells/ml. Dilute cells further 1:30 with HEK cell media. • 2. Cell plating • Add 150 μl of cell suspension to appropriately labelled wells of a 96-well plate. Incubate plate for 48 h at 37° C. in a humidified atmosphere containing 5% CO2 for adherence of cells to wells. • 3. Compound addition • Add 25 μl of calcitriol (10^−6 to 10^−11 M, final) and add 25 μl of substrate (10^−7 to 10^−10 M, final) and incubate for 32 hours at 37° C. in a humidified atmosphere containing 5% CO2. • 4. Cell harvesting and counting • Add 0.2 μCi/well of [^3H]-thymidine in 20 μl of HEK cell media to each well. Incubate plates for 18 h at 37° C. in a humidified atmosphere containing 5% CO2. Aspirate media and wash with 1×PBS. Trypsinize cells for 30 min at 37° C. in a humidified atmosphere containing 5% CO2. Harvest cells onto filter plates using Tomtec cell harvester as per manufacturer's instructions. Add 25 μl scintillation fluid per well. Measure radioactivity using a scintillation counter. All values were normalized for background. Results; See FIGS. 1-4
# [4] = Antiproliferative activity of the compound of Formula VI (test not specified); format: cell-based; conditions: present invention
# Source text: The preparation of the compound of Formula VI was previously reported (Wang, Q. PhD Thesis, 2000, Johns Hopkins University). The ability of the compound of Formula VI to selectively modulate CYP24 activity has not been reported. […] Accordingly, the present invention is the first to find that the compound of Formula VI is useful in the methods of the invention.
# [5] = molecular target: T1, CYP24 (Homo sapiens, UniProt Q07973); assay: In vitro test for selective inhibition of CYP24 (standard protocol, ketoconazole control); format: biochemical; conditions: in comparison to CYP27A1 and CYP27B1
# T1 sequence (Q07973 36-514): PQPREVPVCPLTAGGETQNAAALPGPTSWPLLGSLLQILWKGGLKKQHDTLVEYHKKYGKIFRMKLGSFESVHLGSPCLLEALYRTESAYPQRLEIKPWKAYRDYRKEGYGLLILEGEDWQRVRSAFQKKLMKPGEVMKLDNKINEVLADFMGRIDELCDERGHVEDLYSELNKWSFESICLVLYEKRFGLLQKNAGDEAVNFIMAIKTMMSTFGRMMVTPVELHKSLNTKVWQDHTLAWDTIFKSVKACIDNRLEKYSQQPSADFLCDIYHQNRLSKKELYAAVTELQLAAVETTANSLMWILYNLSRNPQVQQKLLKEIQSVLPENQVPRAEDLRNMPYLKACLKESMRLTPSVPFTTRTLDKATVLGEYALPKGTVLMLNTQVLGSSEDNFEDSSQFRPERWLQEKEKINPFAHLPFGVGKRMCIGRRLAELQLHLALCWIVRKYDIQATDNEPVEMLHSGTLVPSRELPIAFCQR
# Procedure: Selectively inhibiting the cytochrome P450 enzymatic pathway, through which 1α,25-dihydroxyvitamin D3 is catabolized (mainly via C-24 hydroxylation), is one important way to prolong the lifetime of this hormone, or analogs thereof. Therefore, the compounds of Formula I were tested in vitro, using a standard protocol, for their ability to inhibit specifically CYP24, an enzyme responsible for 24-hydroxylation of 1α,25-dihydroxyvitamin D3. Antimycotic ketoconazole, a drug used clinically for chemotherapy of human prostate cancer (Trachtenberg, J. et al. J. Urol. 1984, J32, 61-63), was used as a control standard for inhibition of CYP24.
Compound,inhibition of SCC-25 cells ([3H]-thymidine incorporation) [1],inhibition of MCF-7 cells ([3H]-thymidine incorporation) [2],inhibition of NHEK ([3H]-thymidine incorporation) [3],antiproliferative activity [4],selective inhibition of CYP24 activity [5]
C=C1/C(=C\C=C2/CCC[C@]3(C)[C@@H]([C@H](C)CCCS(=O)(=O)c4ccc(F)cc4)CC[C@@H]23)C[C@@H](O)C[C@@H]1O [Va],act to inhibit SCC-25 cells,act to inhibit MCF-7 cells,act to inhibit normal human epidermal keratinocytes,–,–
C[C@H](C/C=C(\F)S(=O)(=O)C(C)(C)C)C1=CC[C@H]2/C(=C/C=C3C[C@@H](O)C[C@H](O)C3)CCC[C@]12C [Ia(xi)],–,act to inhibit MCF-7 cells,–,–,–
C=C1/C(=C\C=C2/CCC[C@@]3(C)C2CC[C@@H]3[C@H](C)CCC2(S(=O)(=O)C(C)(C)C)CC2)C[C@@H](O)C[C@@H]1O (some centres unmarked) [IIa],act to inhibit SCC-25 cells,–,act to inhibit normal human epidermal keratinocytes,–,–
C=C1/C(=C\C=C2/CCC[C@]3(C)C([C@H](C)C/C=C(/F)S(=O)(=O)C(C)(C)C)=CC[C@@H]23)C[C@@H](O)C[C@@H]1O [Ib(v)],act to inhibit SCC-25 cells,act to inhibit MCF-7 cells,act to inhibit normal human epidermal keratinocytes,–,–
C=C1/C(=C\C=C2/CCCC3(C)C(C(C)CCC4(S(=O)(=O)C(C)(C)C)CC4)=CCC23)CC(O)CC1O (centres unmarked) [Formula VI],–,–,–,does have antiproliferative activity,shows selective inhibition of CYP24 activity
"C=C1/C(=C\C=C2/CCC[C@]3(C)C([C@H](C)CCC(C)(C)S(=O)(=O)C(C)(C)C)=CCC23)C[C@@H](O)C[C@@H]1O (some centres unmarked) [IVa, 16-ene-24-dimethyl-25-SO2-TB1]",act to inhibit SCC-25 cells,act to inhibit MCF-7 cells,act to inhibit normal human epidermal keratinocytes,–,–
